Laboratory results taken from BindingDB's records for doi:10.7270/Q2PN942B (Vanderbilt Screening Center for GPCRs, Ion Channels and …, 2009).

target: T1, Solute carrier family 12 member 5 (Homo sapiens, UniProt Q9H2X9); test: KCC2 cotransport modulators, dose response, cell-based, assay 2 (AID 1723); conditions: not given
T1 sequence (Q9H2X9 whole entry): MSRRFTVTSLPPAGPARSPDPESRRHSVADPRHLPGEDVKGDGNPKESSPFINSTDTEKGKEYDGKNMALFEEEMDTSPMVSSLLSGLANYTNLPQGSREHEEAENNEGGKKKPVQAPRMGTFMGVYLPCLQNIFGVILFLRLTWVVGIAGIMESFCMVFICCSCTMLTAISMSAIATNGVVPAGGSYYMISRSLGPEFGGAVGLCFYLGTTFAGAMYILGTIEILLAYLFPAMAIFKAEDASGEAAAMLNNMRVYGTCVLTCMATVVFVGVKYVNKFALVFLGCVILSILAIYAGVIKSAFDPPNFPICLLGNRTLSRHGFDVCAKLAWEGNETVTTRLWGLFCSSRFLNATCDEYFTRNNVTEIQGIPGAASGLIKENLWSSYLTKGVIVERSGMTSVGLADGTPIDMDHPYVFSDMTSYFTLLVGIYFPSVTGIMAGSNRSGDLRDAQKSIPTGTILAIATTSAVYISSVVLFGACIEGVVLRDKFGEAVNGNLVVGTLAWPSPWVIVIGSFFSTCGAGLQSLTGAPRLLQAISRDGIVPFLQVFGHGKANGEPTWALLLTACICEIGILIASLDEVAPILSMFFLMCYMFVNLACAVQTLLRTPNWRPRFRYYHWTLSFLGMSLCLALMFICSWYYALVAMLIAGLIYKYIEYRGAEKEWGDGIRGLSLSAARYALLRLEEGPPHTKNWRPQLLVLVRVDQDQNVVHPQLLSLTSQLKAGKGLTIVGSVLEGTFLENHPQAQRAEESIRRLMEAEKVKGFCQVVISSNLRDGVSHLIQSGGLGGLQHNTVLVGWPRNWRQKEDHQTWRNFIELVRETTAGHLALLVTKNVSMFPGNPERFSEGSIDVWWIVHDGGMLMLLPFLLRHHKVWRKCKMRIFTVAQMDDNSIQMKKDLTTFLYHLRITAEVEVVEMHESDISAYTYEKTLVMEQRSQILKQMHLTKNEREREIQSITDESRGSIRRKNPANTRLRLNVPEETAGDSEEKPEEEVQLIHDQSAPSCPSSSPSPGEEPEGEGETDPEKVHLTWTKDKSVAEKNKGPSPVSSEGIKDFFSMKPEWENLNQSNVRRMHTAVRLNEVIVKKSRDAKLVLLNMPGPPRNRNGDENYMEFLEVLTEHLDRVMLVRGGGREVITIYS

SMILES	EC50 [µM]
CNc1ccc2oc(C[C@H]3O[C@@]4(CC[C@H]3C)O[C@H]([C@H](C)C(=O)c3ccc[nH]3)[C@H](C)C[C@H]4C)nc2c1C(=O)O [MLS001056783]	15.4
COC(=O)[C@@H](NC(=O)O[C@@H]1C(=O)c2ccc(OC)cc2O[C@H]1c1cccc(C(F)(F)F)c1)C(C)C [(2S)-2-[[(2S,3S)-4-keto-7-methoxy-2-[3-(trifluoromethyl)phenyl]chroman-3-yl]oxycarbonylamino]-3-methyl-butyric acid methyl ester]	0.996
S=c1nc(-c2ccc3c(c2)CCO3)cc[nH]1	8.12
Fc1cccc(F)c1C=NNC(=S)Nc1cccnc1 [1-[(2,6-difluorobenzylidene)amino]-3-(3-pyridyl)thiourea]	14
COC(=O)c1sccc1NC(=S)OC [3-(methoxycarbothioylamino)thiophene-2-carboxylic acid methyl ester]	1.74
N=C1SCC(=O)N1c1ncc(Cc2cccc(Cl)c2)s1 [2-azanylidene-3-[5-[(3-chlorophenyl)methyl]-1,3-thiazol-2-yl]-1,3-thiazolidin-4-one]	2.57
Oc1ccccc1CN=Nc1nc2ccccc2o1 [(6E)-6-[(1,3-benzoxazol-2-ylhydrazo)methylidene]-1-cyclohexa-2,4-dienone]	45.3
Cc1[nH]n2c(=O)cc(C(C)C)nc2c1-c1ccccc1	12.9
COc1cc(NC(=S)NC(=O)c2ccco2)ccc1NC(=O)C(C)C [MLS000672338]	14.1
CC(=O)c1cccc(NC(=S)NC(=O)c2ccc(C)cc2)c1 [MLS000687464]	1.86
CCOc1ccc2nc(Sc3cc(O)n(-c4cccc(OC)c4)c3O)sc2c1 [3-(6-Ethoxy-benzothiazol-2-ylsulfanyl)-1-(3-methoxy-phenyl)-pyrrolidine-2,5-dione]	14.2

The remaining lines, values ahead:

EC50 [µM]	SMILES
244	O=C(NC(=S)Nc1nc(-c2cccc([N+](=O)[O-])c2)cs1)c1ccccc1Cl [2-chloranyl-N-[[4-(3-nitrophenyl)-1,3-thiazol-2-yl]carbamothioyl]benzamide]
0.548	O=[N+]([O-])c1ccc(-c2cn(-c3ccccc3F)c(=S)[nH]2)cc1
25.5	O=c1c2ccccc2[nH]c(=S)n1CCN1CCC(=C(c2ccc(F)cc2)c2ccc(F)cc2)CC1 [SMR000058550]
53.1	O=[N+]([O-])c1ccccc1C=C[CH+][N-]n1c(-c2ccc(Cl)cc2)n[nH]c1=S [MLS000555506]
11.2	S=C(NCCc1ccccc1)NN=Cc1cccc(Cl)c1Cl [1-[(2,3-dichlorobenzylidene)amino]-3-phenethyl-thiourea]
2.29	NC(=S)NN=C1C(=O)N(Cc2ccc(F)cc2)c2ccccc21 [1-[(Z)-[1-[(4-fluorophenyl)methyl]-2-oxidanylidene-indol-3-ylidene]amino]thiourea]
5.86	CCOc1[nH]n(-c2ccccc2)c(=O)c1C=Nc1ccc(F)cc1F [(4E)-4-[[[2,4-bis(fluoranyl)phenyl]amino]methylidene]-5-ethoxy-2-phenyl-pyrazol-3-one]
1.86	Cc1nn(-c2nc3ccccc3[nH]2)c(N)c1-c1ccccc1 [MLS000063763]

same assay, conditions: inactive by the depositor's call

EC50 [µM]	SMILES
138	Cc1ccc(Cn2c(SCC(=O)Nc3cc(C)on3)nc3ccccc3c2=O)cc1 [2-[[4-keto-3-(4-methylbenzyl)quinazolin-2-yl]thio]-N-(5-methylisoxazol-3-yl)acetamide]
0.61	Cc1noc(/C=C/N(C)C)c1S(=O)(=O)N(C)CC(=O)NC1CCCCC1 [MLS000047204]
